Results reported in ChEMBL document CHEMBL1909046, “DrugMatrix in vitro pharmacology data”.

How the values were obtained:
[1] = molecular target: T1, Alpha-2C adrenergic receptor (Homo sapiens, UniProt P18825); experiment: DRUGMATRIX: Adrenergic Alpha-2C radioligand binding (ligand: [3H] MK-912); assay type: cell membranes, Sf9, Membrane; for IC50: call rule not given here
T1 sequence (P18825 whole entry): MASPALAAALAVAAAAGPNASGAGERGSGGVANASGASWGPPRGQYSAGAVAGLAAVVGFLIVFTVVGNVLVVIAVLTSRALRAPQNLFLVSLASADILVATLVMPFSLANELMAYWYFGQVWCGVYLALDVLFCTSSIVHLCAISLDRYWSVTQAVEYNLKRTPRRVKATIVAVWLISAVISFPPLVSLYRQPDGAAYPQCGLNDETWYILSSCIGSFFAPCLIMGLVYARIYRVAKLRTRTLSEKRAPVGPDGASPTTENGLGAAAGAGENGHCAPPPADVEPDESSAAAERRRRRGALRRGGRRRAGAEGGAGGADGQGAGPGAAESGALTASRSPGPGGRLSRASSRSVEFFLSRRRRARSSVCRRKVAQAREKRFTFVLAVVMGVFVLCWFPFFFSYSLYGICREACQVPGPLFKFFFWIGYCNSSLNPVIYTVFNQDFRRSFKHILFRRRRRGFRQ

Glycine receptor = Glycine receptor (Rattus norvegicus, UniProt P22771+P24524+P07727+P20781); assay type: cell membranes, Wistar, Spinal cord, Membrane; note: in other assays of this panel Not Active means under 50% inhibition at 10 µM
[2] = molecular target: Matrix metalloproteinase-9 (Homo sapiens, UniProt P14780); experiment: biochemical; assay type: cell-based;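 note: inhibition of isolated MMP-9 enzyme activity toward a synthetic peptide substrate, from the DrugMatrix protease screening panel; in other assays of this panel Not Active means under 50% inhibition at 10 µM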
Sequence of Matrix metalloproteinase-9 (P14780 whole entry): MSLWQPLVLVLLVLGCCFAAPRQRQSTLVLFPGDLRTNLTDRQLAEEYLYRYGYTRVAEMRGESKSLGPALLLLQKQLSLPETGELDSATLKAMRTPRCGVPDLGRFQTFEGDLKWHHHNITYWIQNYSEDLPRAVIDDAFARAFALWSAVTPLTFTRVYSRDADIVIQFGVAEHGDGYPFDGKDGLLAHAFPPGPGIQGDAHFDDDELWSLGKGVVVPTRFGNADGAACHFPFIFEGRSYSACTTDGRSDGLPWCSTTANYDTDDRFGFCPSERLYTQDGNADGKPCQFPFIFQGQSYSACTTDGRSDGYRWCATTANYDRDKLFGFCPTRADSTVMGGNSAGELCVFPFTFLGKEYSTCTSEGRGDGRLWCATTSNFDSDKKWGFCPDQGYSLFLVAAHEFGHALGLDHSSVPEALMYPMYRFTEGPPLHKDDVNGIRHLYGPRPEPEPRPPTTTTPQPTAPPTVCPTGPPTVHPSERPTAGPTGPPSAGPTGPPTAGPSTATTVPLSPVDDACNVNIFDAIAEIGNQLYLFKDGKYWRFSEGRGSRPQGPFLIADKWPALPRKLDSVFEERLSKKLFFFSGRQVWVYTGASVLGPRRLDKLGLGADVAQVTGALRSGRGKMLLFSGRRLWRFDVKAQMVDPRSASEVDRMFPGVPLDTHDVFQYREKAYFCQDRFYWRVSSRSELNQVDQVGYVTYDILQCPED

[3] = molecular target: C-C chemokine receptor type 2 (Homo sapiens, UniProt P41597); assay type: cell membranes, CHO-K1, Membrane; details: cho-k1; note: in other assays of this panel Not Active means under 50% inhibition at 10 µM
Sequence of C-C chemokine receptor type 2 (P41597 whole entry): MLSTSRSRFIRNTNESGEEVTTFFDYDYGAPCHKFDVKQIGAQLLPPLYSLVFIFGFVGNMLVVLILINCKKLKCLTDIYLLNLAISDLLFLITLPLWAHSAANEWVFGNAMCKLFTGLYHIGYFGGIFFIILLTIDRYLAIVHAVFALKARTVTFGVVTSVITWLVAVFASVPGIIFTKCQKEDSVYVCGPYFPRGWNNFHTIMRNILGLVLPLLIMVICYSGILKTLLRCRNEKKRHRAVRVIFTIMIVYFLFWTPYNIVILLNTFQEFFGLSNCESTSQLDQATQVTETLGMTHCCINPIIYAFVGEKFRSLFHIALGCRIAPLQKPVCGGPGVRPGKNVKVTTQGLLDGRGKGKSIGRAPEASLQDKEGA

[4] = molecular target: T2, Alpha-1D adrenergic receptor (Homo sapiens, UniProt P25100); assay type: cell membranes, HEK293, Membrane; details: hek293; note: in other assays of this panel Not Active means under 50% inhibition at 10 µM
T2 sequence (P25100 whole entry): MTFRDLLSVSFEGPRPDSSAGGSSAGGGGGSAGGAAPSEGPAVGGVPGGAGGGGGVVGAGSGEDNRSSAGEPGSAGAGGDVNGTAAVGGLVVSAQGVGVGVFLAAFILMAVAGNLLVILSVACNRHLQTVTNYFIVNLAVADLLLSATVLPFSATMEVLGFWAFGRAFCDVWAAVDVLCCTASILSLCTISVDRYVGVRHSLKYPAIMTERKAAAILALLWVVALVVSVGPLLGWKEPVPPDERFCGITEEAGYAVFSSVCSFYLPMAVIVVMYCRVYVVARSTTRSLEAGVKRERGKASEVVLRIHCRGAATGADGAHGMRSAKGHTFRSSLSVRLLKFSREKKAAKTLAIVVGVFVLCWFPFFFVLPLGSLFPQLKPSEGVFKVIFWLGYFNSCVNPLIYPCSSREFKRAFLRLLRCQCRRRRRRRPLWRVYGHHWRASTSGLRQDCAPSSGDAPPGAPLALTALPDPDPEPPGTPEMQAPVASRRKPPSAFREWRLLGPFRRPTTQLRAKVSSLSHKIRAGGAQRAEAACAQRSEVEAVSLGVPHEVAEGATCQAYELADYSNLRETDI

Cytochrome P450 2C19 = Cytochrome P450 2C19 (Homo sapiens, UniProt P33261); details: bti-tn-5b1-4; note: in other assays of this panel Not Active means under 50% inhibition at 10 µM
Sequence of Cytochrome P450 2C19 (P33261 whole entry): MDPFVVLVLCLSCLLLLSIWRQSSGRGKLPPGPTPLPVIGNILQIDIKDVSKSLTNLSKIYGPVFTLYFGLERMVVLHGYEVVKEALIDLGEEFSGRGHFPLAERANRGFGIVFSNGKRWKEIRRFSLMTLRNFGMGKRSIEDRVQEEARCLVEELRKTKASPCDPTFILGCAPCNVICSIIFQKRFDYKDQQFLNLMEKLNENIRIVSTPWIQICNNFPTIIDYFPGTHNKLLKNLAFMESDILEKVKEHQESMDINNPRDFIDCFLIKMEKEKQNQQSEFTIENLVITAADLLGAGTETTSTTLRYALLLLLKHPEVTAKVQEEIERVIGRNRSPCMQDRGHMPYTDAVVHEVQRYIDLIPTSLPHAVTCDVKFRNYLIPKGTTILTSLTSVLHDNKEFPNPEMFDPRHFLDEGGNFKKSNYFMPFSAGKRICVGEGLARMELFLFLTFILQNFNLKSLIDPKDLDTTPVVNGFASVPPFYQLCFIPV

| Compound | IC50 ([1]; sf9) | IC50 (Glycine receptor) | IC50 [2] | IC50 [3] | IC50 [4] | IC50 (Cytochrome P450 2C19) | Ki (Cytochrome P450 2C19) | IC50 ([1]; read-out: IC50) | Ki ([1]; read-out: Ki) |
| --- | --- | --- | --- | --- | --- | --- | --- | --- | --- |
| O=C(N[C@H](CO)[C@H](O)c1ccc([N+](=O)[O-])cc1)C(Cl)Cl [CHLORAMPHENICOL] | Not Active | Not Active | Not Active | Not Active | Not Active |  |  |  |  |
| Cn1c(=O)c2c(ncn2CC2OCCO2)n(C)c1=O [DOXOFYLLINE] | Not Active | Not Active | Not Active | Not Active | Not Active | Not Active | Not Active |  |  |
| CCC1=C[C@@H]2CN(C1)Cc1c([nH]c3ccccc13)[C@@](C(=O)OC)(c1cc3c(cc1OC)N(C)[C@H]1[C@@](O)(C(=O)OC)[C@H](OC(C)=O)[C@]4(CC)C=CCN5CC[C@]31[C@@H]54)C2 [VINORELBINE] | Not Active | Not Active | Not Active | Not Active | Not Active | Not Active | Not Active |  |  |
| CC(C(=O)O)c1cccc(C(=O)c2ccccc2)c1 (stereo not given) [KETOPROFEN] | Not Active | Not Active | Not Active | Not Active | Not Active | Not Active | Not Active |  |  |
| O=c1ccc2ccccc2o1 [COUMARIN] | Not Active | Not Active | Not Active | Not Active | Not Active | Not Active | Not Active |  |  |
| CC1(C)O[C@@H]2C[C@H]3[C@@H]4C[C@H](F)C5=CC(=O)C=C[C@]5(C)[C@H]4[C@@H](O)C[C@]3(C)[C@]2(C(=O)CO)O1 [FLUNISOLIDE] | Not Active | Not Active | Not Active | Not Active | Not Active | Not Active | Not Active |  |  |
| CC1(C)O[C@@H]2C[C@H]3[C@@H]4C[C@H](F)C5=CC(=O)C=C[C@]5(C)[C@@]4(F)[C@@H](O)C[C@]3(C)[C@]2(C(=O)CO)O1 [FLUOCINOLONE ACETONIDE] | Not Active | Not Active | Not Active | Not Active | Not Active | Not Active | Not Active |  |  |
| N=C(Nc1ccccc1)Nc1ccccc1 | Not Active | Not Active | Not Active | Not Active | Not Active | Not Active | Not Active |  |  |
| CC[C@@H](CO)NCCN[C@@H](CC)CO [ETHAMBUTOL] | Not Active | Not Active | Not Active | Not Active | Not Active | Not Active | Not Active |  |  |
| CN1C(=O)COc2c(C(=O)NC3CN4CCC3CC4)cc(Cl)cc21 (stereo not given) [AZASETRON] | Not Active | Not Active | Not Active | Not Active | Not Active | Not Active | Not Active |  |  |
| O=NN(CCCl)C(=O)NCCCl [CARMUSTINE] | Not Active | Not Active | Not Active | Not Active | Not Active |  |  |  |  |
| O=C(C1CCCCC1)N1CC(=O)N2CCc3ccccc3C2C1 (stereo not given) [PRAZIQUANTEL] | Not Active | Not Active | Not Active | Not Active | Not Active | Not Active | Not Active |  |  |
| C[C@]12CC[C@@H]3c4ccc(OC(=O)c5ccccc5)cc4CC[C@H]3[C@@H]1CC[C@@H]2O [ESTRADIOL BENZOATE] |  | Not Active | Not Active | Not Active | Not Active | Not Active | Not Active | 24.6 µM | 3.58 µM |
| C[N+](C)(C)CCO.[Cl-] [CHOLINE CHLORIDE] | Not Active | Not Active | Not Active | Not Active | Not Active | Not Active | Not Active |  |  |
| NC(=O)NO [HYDROXYUREA] | Not Active | Not Active | Not Active | Not Active | Not Active |  |  |  |  |
| C[C@@]12C(=O)OC(=O)[C@]1(C)[C@H]1CC[C@@H]2O1 [CANTHARIDIN] | Not Active | Not Active | Not Active | Not Active | Not Active | Not Active | Not Active |  |  |

| Compound | IC50 ([1]; sf9) | IC50 (Glycine receptor) | IC50 [2] | IC50 [3] | IC50 [4] | IC50 (Cytochrome P450 2C19) | Ki (Cytochrome P450 2C19) | IC50 ([1]; read-out: IC50) | Ki ([1]; read-out: Ki) |
| --- | --- | --- | --- | --- | --- | --- | --- | --- | --- |
| O=S(=O)([O-])CCS.[Na+] [MESNA] | Not Active | Not Active | Not Active | Not Active | Not Active | Not Active | Not Active |  |  |
| CCN[C@@H]1C[C@H](N)[C@@H](O[C@H]2OC(CN)=CC[C@H]2N)[C@H](O)[C@H]1O[C@H]1OC[C@](C)(O)[C@H](NC)[C@H]1O [NETILMICIN] | Not Active | Not Active | Not Active | Not Active | Not Active |  |  |  |  |
| C/C=C/C[C@@H](C)[C@@H](O)[C@H]1C(=O)N[C@@H](CC)C(=O)N(C)CC(=O)N(C)[C@@H](CC(C)C)C(=O)N[C@@H](C(C)C)C(=O)N(C)[C@@H](CC(C)C)C(=O)N[C@@H](C)C(=O)N[C@H](C)C(=O)N(C)[C@@H](CC(C)C)C(=O)N(C)[C@@H](CC(C)C)C(=O)N(C)[C@@H](C(C)C)C(=O)N1C [CYCLOSPORINE] | Not Active | Not Active | Not Active | Not Active | Not Active |  |  |  |  |
| CCOC(=O)C(C)(C)Oc1ccc(Cl)cc1 [CLOFIBRATE] | Not Active | Not Active | Not Active | Not Active | Not Active |  |  |  |  |
| C#C[C@]1(OC(C)=O)CC[C@H]2[C@@H]3CCC4=CC(=O)CC[C@@H]4[C@H]3CC[C@@]21C [NORETHINDRONE ACETATE] | Not Active | Not Active | Not Active | Not Active | Not Active |  |  |  |  |
| COC(=O)C1=C(C)NC(C)=C(C(=O)OCC(C)C)C1c1ccccc1[N+](=O)[O-] (stereo not given) [NISOLDIPINE] | Not Active | Not Active | Not Active | Not Active | Not Active |  |  |  |  |
| C[C@@H]1C[C@@H]([C@H](O)CC2CC(=O)NC(=O)C2)C(=O)[C@@H](C)C1 [CYCLOHEXIMIDE] | Not Active | Not Active | Not Active | Not Active | Not Active |  |  |  |  |
| Cc1ccccc1C(=O)N1CCC(Cc2ccccc2)CC1 | Not Active | Not Active | Not Active | Not Active | Not Active |  |  |  |  |
| O=C1CC2(CCCC2)CC(=O)N1CCCCN1CCN(c2ncccn2)CC1 [BUSPIRONE] | Not Active | Not Active | Not Active | Not Active |  | Not Active | Not Active |  |  |
| C[C@](O)(CS(=O)(=O)c1ccc(F)cc1)C(=O)Nc1ccc(C#N)c(C(F)(F)F)c1 [(R)-BICALUTAMIDE] | Not Active | Not Active | Not Active | Not Active | Not Active |  |  |  |  |
| CCCCOc1ccc(OCCCN2CCOCC2)cc1 [PRAMOXINE] | Not Active | Not Active | Not Active | Not Active | Not Active |  |  |  |  |
| CCn1cc(C(=O)O)c(=O)c2cc(F)c(N3CCN(C)CC3)cc21 [PEFLOXACIN] | Not Active | Not Active | Not Active | Not Active | Not Active |  |  |  |  |
| CCOC(=O)C1=C(C)NC(C)=C(C(=O)OC)C1c1cccc([N+](=O)[O-])c1 (stereo not given) [NITRENDIPINE] | Not Active | Not Active | Not Active | Not Active | Not Active |  |  |  |  |
| CC1=C(C(=O)O)N2C(=O)[C@@H](NC(=O)[C@H](N)c3ccccc3)[C@H]2SC1 [CEPHALEXIN ANHYDROUS] | Not Active | Not Active | Not Active | Not Active | Not Active |  |  |  |  |
| COc1ccccc1C(=O)N1CCC(Cc2ccccc2)CC1 | Not Active | Not Active | Not Active | Not Active | Not Active |  |  |  |  |
| COc1ccc2cc([C@H](C)C(=O)O)ccc2c1 [NAPROXEN] | Not Active | Not Active | Not Active | Not Active | Not Active |  |  |  |  |
